The record followed here is ChEMBL document CHEMBL5634090, “Design of phenothiazine-based cationic amphiphilic derivatives incorporating arginine residues: Potential membrane-active broad-spectrum antimicrobials combating pathogenic bacteria in vitro and in vivo” (Eur J Med Chem, 2023).

SMILES strings stand for the structures. Values after ≈ are worked out from the molar mass of the structure shown. A value given as a limit tells only on which side of the number the result lay.

What all share (type): functional
The subject of experiment [1] is Klebsiella pneumoniae. The experiment can be described thus: Antibacterial activity against Klebsiella pneumoniae ATCC 14581 by microbroth dilution assay. In general terms: Dilution methods test growth across graded concentrations, often in twofold steps.
Experiment [2] deals with Klebsiella pneumoniae. Description: Antibacterial activity against Klebsiella pneumoniae ATCC 10031 by microbroth dilution assay.
Experiment [3] has as its system Staphylococcus aureus. The experiment can be described thus: Inhibition of biofilm formation in Staphylococcus aureus ATCC 29213 at MIC by crystal violet staining assay relative to control.
Experiment [4] has as its system Klebsiella pneumoniae. Description: Antibiofilm activity against 24 hrs preformed biofilm in Klebsiella pneumoniae ATCC 10031 assessed as residual biomass at 4 times MIC relative to control.
For experiment [5], the system named is Klebsiella pneumoniae. Description: Inhibition of biofilm formation in Klebsiella pneumoniae ATCC 10031 at MIC by crystal violet staining assay relative to control.
The test system of experiment [6] is Staphylococcus aureus. The experiment can be described thus: Antibiofilm activity against 24 hrs preformed biofilm in Staphylococcus aureus ATCC 29213 assessed as residual biomass at 4 times MIC relative to control.
The test system of experiment [7] is Klebsiella pneumoniae. Description: Antibacterial activity against Klebsiella pneumoniae ATCC 10031 assessed as log reduction in bacterial load at 8 times MIC measured after 2 hrs by time kill assay.
Experiment [8] has as its system Pseudomonas aeruginosa. Description: Antibacterial activity against Pseudomonas aeruginosa ATCC 9027 by microbroth dilution assay.
The test system of experiment [9] is Klebsiella pneumoniae. The experiment can be described thus: Induction of resistance development in Klebsiella pneumoniae ATCC 10031 assessed as fold increase in MIC treated over 20 serial passages by microdilution assay.
Experiment [10] has as its system Pseudomonas aeruginosa. Description: Antibacterial activity against Pseudomonas aeruginosa ATCC 9027 infected in cyclophosphamide immunosuppressed keratitis mouse model assessed as log reduction in number of viable bacterial colonies at 0.3 % administrated tropically.
Experiment [11] concerns Staphylococcus aureus. Description: Antibacterial activity against Staphylococcus aureus ATCC 29213 assessed as log reduction in bacterial load at 8 times MIC measured after 2 hrs by time kill assay.
The test system of experiment [12] is Staphylococcus aureus. The experiment can be described thus: Antibacterial activity against Staphylococcus aureus ATCC 29213 by microbroth dilution assay.
Experiment [13] relates to Staphylococcus aureus. The experiment can be described thus: Antibacterial activity against methicillin resistant Staphylococcus aureus N315 by microbroth dilution assay.
The subject of experiment [14] is Staphylococcus aureus. Description: Antibacterial activity against methicillin resistant Staphylococcus aureus NCTC 10442 by microbroth dilution assay.
In experiment [15] the test system is Staphylococcus aureus. Description: Antibacterial activity against Staphylococcus aureus ATCC 29213 assessed as log reduction in bacterial load at 4 times MIC measured after 2 hrs by time kill assay.
The subject of experiment [16] is Staphylococcus aureus. Description: Antibacterial activity against Staphylococcus aureus ATCC 29213 infected in cyclophosphamide immunosuppressed keratitis mouse model assessed as log reduction in number of viable bacterial colonies at 50 mg/ml administrated tropically.

As for `CC[C@H](C)[C@H](NC(=O)CN)C(=O)NCC(=O)N[C@@H](C)C(=O)N[C@H](C(=O)N[C@@H](CC(C)C)C(=O)N[C@@H](CCCCN)C(=O)N[C@H](C(=O)N[C@@H](CC(C)C)C(=O)N[C@H](C(=O)N[C@H](C(=O)NCC(=O)N[C@@H](CC(C)C)C(=O)N1CCC[C@H]1C(=O)N[C@@H](C)C(=O)N[C@@H](CC(C)C)C(=O)N[C@H](C(=O)N[C@@H](CO)C(=O)N[C@@H](Cc1c[nH]c2ccccc12)C(=O)N[C@H](C(=O)N[C@@H](CCCCN)C(=O)N[C@@H](CCCNC(=N)N)C(=O)N[C@@H](CCCCN)C(=O)N[C@@H](CCCNC(=N)N)C(=O)N[C@@H](CCC(N)=O)C(=O)N[C@@H](CCC(N)=O)C(N)=O)[C@@H](C)CC)[C@@H](C)CC)[C@@H](C)O)[C@@H](C)O)C(C)C)C(C)C` [MELITTIN], the MIC in the experiment with Klebsiella pneumoniae [1] and against Klebsiella pneumoniae [2] was 6.25 µg/mL (≈ 2.2 µM) throughout. Besides, the “inhibition (INH)” value in the experiment with Staphylococcus aureus [3] and in the experiment with Klebsiella pneumoniae [5] was more than 90% each time. For the same compound, the Activity in the experiment with Klebsiella pneumoniae [4] is recorded as less than 10%; in the experiment on Staphylococcus aureus [6], more than 10%.

Regarding `O=C(O)c1cn(C2CC2)c2cc(N3CCNCC3)c(F)cc2c1=O` [CIPROFLOXACIN], the MIC against Klebsiella pneumoniae [1], with Klebsiella pneumoniae [2] and in the experiment with Pseudomonas aeruginosa [8] was 0.195 µg/mL (≈ 0.589 µM) each time. The “log(activity)” value in the experiment with Klebsiella pneumoniae [7] turned out to be 2.27. The fold change (FC) in the experiment with Klebsiella pneumoniae [9] amounted to 128.

Turning to `NC[C@H]1O[C@H](O[C@H]2[C@H](O)[C@@H](O[C@H]3O[C@H](CO)[C@@H](O)[C@H](N)[C@H]3O)[C@H](N)C[C@@H]2N)[C@H](N)C[C@@H]1O` [TOBRAMYCIN], the “log(activity)” value in the experiment on Pseudomonas aeruginosa [10] turned out to be 4.71.

On to `CN[C@H](CC(C)C)C(=O)N[C@H]1C(=O)N[C@@H](CC(N)=O)C(=O)N[C@H]2C(=O)N[C@H]3C(=O)N[C@H](C(=O)N[C@H](C(=O)O)c4cc(O)cc(O)c4-c4cc3ccc4O)[C@H](O)c3ccc(c(Cl)c3)Oc3cc2cc(c3O[C@@H]2O[C@H](CO)[C@@H](O)[C@H](O)[C@H]2O[C@H]2C[C@](C)(N)[C@H](O)[C@H](C)O2)Oc2ccc(cc2Cl)[C@H]1O` [VANCOMYCIN], for which the “log(activity)” value in the experiment with Staphylococcus aureus [11] is 0.15; with Staphylococcus aureus [15], 0.03; with Staphylococcus aureus [16], 5.2. The figures for the MIC against Staphylococcus aureus [12], against Staphylococcus aureus [13] and against Staphylococcus aureus [14] were 0.78 µg/mL (≈ 0.538 µM), 1.56 µg/mL (≈ 1.08 µM) and 1.56 µg/mL (≈ 1.08 µM), respectively.

The MIC is the lowest concentration found to suppress growth. The low end stands for inhibition by little substance, the high end for a need for much substance.
